In ChEMBL document CHEMBL6092219, “Structure-Based Design of Covalent SARS-CoV-2 Papain-like Protease Inhibitors” (J Med Chem, 2024):

How the values were obtained:
SARS-CoV-2 [1] = experiment: Antiviral activity against nirmatrelvir-resistant SARS-CoV-2 harboring rL50F/E166A/L167F mutant infected in human Caco-2 cells expressing hTMPRSS/hACE2 incubated for 48 hrs in presence of CP-100356 by crystal violet staining based analysis; format: functional, organism-based, Severe acute respiratory syndrome coronavirus 2
SARS-CoV-2 [2] = experiment: Selectivity ratio of EC50 for nirmatrelvir-resistant SARS-CoV-2 harboring rL50F/E166A/L167F mutant infected in human Caco-2 cells expressing hTMPRSS/hACE2 to EC50 for wild-type SARS-CoV-2 WA1 infected in human Caco-2 cells expressing hTMPRSS/hACE2; format: functional

`CC(C)(C)[C@H](NC(=O)C(F)(F)F)C(=O)N1C[C@H]2[C@@H]([C@H]1C(=O)N[C@H](C#N)C[C@@H]1CCNC1=O)C2(C)C` was tested, and the EC50 (SARS-CoV-2 [1]) was 501 nM and the “Ratio EC50” value (SARS-CoV-2 [2]) was 14.8.
